# Source: US20240350450A1, “COMPOSITION COMPRISING a-KE[…] (a-KG) AND 5-HYDROXYMETHYL-2-FURFURAL (5-HMF) TO IMPROVE HEMOGLOBIN-MEDIATED OXYGEN SUPPLY” (CYL GmbH, priority 2021, published 2024)
# “Also recorded” adds a separate entry of the source.
# Legend:
# hemoglobin (Hb) = target: T1, hemoglobin (Hb) (Homo sapiens, UniProt P68871+P69905); assay: in vitro high-throughput determination of oxygen dissociation curves (ODC) in whole blood samples; type: biochemical; settings: for Hill coefficient (HC) / P50 / Hb oxygen binding affinity (Hb-O2 affinity): human whole blood, low, medium and high dosage, 37° C., 40 mmHg PCO2
# T1 construct: Venous blood was collected from 20 healthy subjects (ten women, ten men) aged 18 to 40 years; from tissue; host or cells: human venous whole blood (erythrocytes) of healthy volunteers
# Method: Venous blood was collected from 20 healthy subjects (ten women, ten men) aged 18 to 40 years. […] Immediately after blood collection, blood gas analysis was performed (ABL800 flex, radiometer) and samples were stored on ice and processed within eight hours.
# The recommended maximum daily dose of 5-HMF of Sanopal® (Cyl, Austria) is 720 mg. Assuming its total distribution in the blood volume of a 70 kg person to be approximately 5000 ml (16), the low dose of 5-HMF was defined as 0.14 mg/ml ([…]).
# To ensure stable conditions during the ODC measurement, the measurement setup was set up in an environmentally controlled, closed device (EC box). This box is temperature-controlled (37° C.) and contains the experimental setup consisting of a humidifier, a cover for the microplate reader, tubes and valves. A modified 96-well plate was used (a special coating process ensures a thin, yet adherent layer of red blood cells for optimal fluorescence measurement), which enabled a constant gas flow across all wells in a meandering gas flow channel. The measuring plate is integrated into a gas system consisting of gas bags, gas hoses, humidifiers, gas mixers and a peristaltic pump.
# The blood samples were placed in the individual wells using a special stamping technique so that a film consisting of a few cell layers could form. Oxygen saturation was measured in each well using dual-wavelength spectroscopy and oxygen partial pressure was measured using the fluorescence lifetime of commercial oxygen sensors at the inlet and outlet ports of the measuring plate. An oxygen ramp of around 20% by volume to 0% by volume was formed, so that a dissociation curve can be measured. The measurements were carried out every minute in a conventional fluorescence plate reader, so that up to 92 samples of whole blood could be analyzed within ˜25 min.
# For the ODC experiments, gas mixtures containing 40 mmHg PCO2 were used, and the temperature was kept constant at 37° C.
# The statistical analysis was performed using IBM SPSS Statistics 25. The unpaired t-test was used to analyze baseline differences between substance compositions. ANOVA with repeated measures design was used to determine P50 and HC differences between the different dosages and substance compositions.
# Post-hoc t-test (Bonferroni-corrected) and ANOVA with repeated measures design were used for each individual substance or a combination of two substances to identify the location and magnitude of changes. Linear regression analysis was used to determine the concentration dependence for each substance. P<0.05 was considered significant. Data are presented as mean±SD.
# severe hypoxia = settings: animal model of severe hypoxia; cited from earlier work
# hypoxia = settings: pigs exposed to hypoxia; cited from earlier work
# HbO2 affinity = settings: human subjects exposed to hypoxia, sickle cell anemia patients; cited from earlier work
# [1] = 143 mg/kg 5-HMF, animal studies; cited from earlier work
# T1 sequence (P69905 2-142 limits assumed): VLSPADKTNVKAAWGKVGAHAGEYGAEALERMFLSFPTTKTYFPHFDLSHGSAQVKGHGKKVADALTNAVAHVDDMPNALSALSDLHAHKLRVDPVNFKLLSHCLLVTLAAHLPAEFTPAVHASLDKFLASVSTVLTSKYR
# T1 sequence (P68871 2-147 limits assumed): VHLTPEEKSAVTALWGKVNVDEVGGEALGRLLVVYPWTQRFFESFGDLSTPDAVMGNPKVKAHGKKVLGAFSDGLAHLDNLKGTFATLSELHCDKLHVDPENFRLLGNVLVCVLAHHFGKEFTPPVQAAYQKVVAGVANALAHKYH
"dose dependence of P50 (hemoglobin (Hb); linear regression over low, medium, high dose)",SMILES,Hill coefficient (HC) (hemoglobin (Hb)),P50 / Hb oxygen binding affinity (Hb-O2 affinity) (hemoglobin (Hb)),hemodynamic stability and microvascular oxygenation (severe hypoxia),arterial oxygen saturation (SO2) (hypoxia),hypoxia-associated increase in pulmonary arterial pressure (hypoxia),HbO2 affinity (HbO2 affinity),adverse effects [1]
–,"O=Cc1ccc(CO)o1 [5-HMF, 5-hydroxymethyl-2-furfural]",significantly changed,strong dose-dependent increase in Hb-O2 affinity; also recorded: significantly changed P50; also recorded: strong dose-dependent increase in HbO2 affinity; also recorded: significant reduction in the P50,protect against hemodynamic instability and maintain microvascular oxygenation,improved arterial oxygen saturation,attenuation,increases in HbO2 affinity were detected,increase in serum gamma globulin levels and the relative spleen weight
lowest effect,"O=C(O)CCC(=O)C(=O)O [α-KG, α-ketoglutaric acid]",altered,altered P50,–,–,–,–,–
